# Patent US6673745B2, “Herbicidal 3,5-difluoropyridines” (BASF Aktiengesellschaft, priority 1997, dated 2004)
# How the values were obtained:
# Experiment in all cases: pre-emergence herbicidal test
# Type in all cases: in vivo
# [1] = test system: Glycine max (GLXMA)
# Description: (§1) To evaluate their herbicidal activity, compounds according to the invention are tested using a representative range of plants: […] The pre-emergence tests involve spraying a liquid formulation of the compound onto the soil in which the seeds of the plant species mentioned above has recently been sown. The soil used in the tests is a prepared horticultural loam. […] In these tests untreated sown soil are used as controls.
# [2] = test system: Alopecurus myosuroides (ALOMY); settings: second assessment 21 days after treatment
# Description: as §1
# [3] = test system: Triticum aestivum (TRZAW)
# Description: as §1
# [4] = test system: Matricaria inodora (MATIN); settings: second assessment 21 days after treatment
# Description: as §1
# [5] = test system: Abutilon theophrasti (ABUTH); settings: second assessment 21 days after treatment
# Description: as §1
# [6] = test system: Zea mays (ZEAMX)
# Description: as §1
# [7] = test system: Setaria viridis (SETVI); settings: second assessment 21 days after treatment
# Description: as §1
# [8] = test system: Ambrosia artemisiifolia (AMBEL); settings: second assessment 21 days after treatment
# Description: as §1
# [9] = test system: Ipomoea hederacea (IPOHE); settings: second assessment 21 days after treatment
# Description: as §1
# [10] = 0.0125 kg/ha, first assessment 10 days after treatment
# [11] = 0.0125 kg/ha, second assessment 21 days after treatment
# [12] = 0.025 kg/ha, first assessment 10 days after treatment
# [13] = 0.025 kg/ha, second assessment 21 days after treatment
# [14] = 0.100 kg/ha, first assessment 10 days after treatment
# [15] = 0.100 kg/ha, second assessment 21 days after treatment
# [16] = 0.400 kg/ha, first assessment 10 days after treatment
# [17] = 0.400 kg/ha, second assessment 21 days after treatment
smiles,measurement,setting,value
Cc1c(F)c(Oc2cccc(C(F)(F)F)c2)nc(-c2ccc(C(F)(F)F)cc2)c1F [Example 2],GLXMA rating,[1]; [10],0 (0 - No effect)
same,GLXMA rating,[1]; [11],2 (2 - Slight effect)
same,GLXMA rating,[1]; [12],1 (1 - Trace effect)
same,GLXMA rating,[1]; [13],2 (2 - Slight effect)
same,GLXMA rating,[1]; [14],3 (3 - Moderate effect)
same,GLXMA rating,[1]; [15],4 (4 - Injury)
same,GLXMA rating,[1]; [16],6 (6 - Herbicidal effect)
same,GLXMA rating,[1]; [17],7 (7 - Good herbicidal effect)
same,ALOMY rating,[2]; 0.0125 kg/ha,2 (2 - Slight effect)
same,ALOMY rating,[2]; 0.025 kg/ha,3 (3 - Moderate effect)
same,ALOMY rating,[2]; 0.400 kg/ha,9 (9 - Complete kill)
same,TRZAW rating,[3]; [10],1 (1 - Trace effect)
same,TRZAW rating,[3]; [11],0 (0 - No effect)
same,TRZAW rating,[3]; [12],1 (1 - Trace effect)
same,TRZAW rating,[3]; [13],0 (0 - No effect)
same,TRZAW rating,[3]; [14],1 (1 - Trace effect)
same,TRZAW rating,[3]; [15],1 (1 - Trace effect)
same,TRZAW rating,[3]; [16],4 (4 - Injury)
same,TRZAW rating,[3]; [17],5 (5 - Definite injury)
same,MATIN rating,[4]; 0.0125 kg/ha,7 (7 - Good herbicidal effect)
same,MATIN rating,[4]; 0.025 kg/ha,8 (8 - Approaching complete kill)
same,MATIN rating,[4]; 0.100 kg/ha,8 (8 - Approaching complete kill)
same,MATIN rating,[4]; 0.400 kg/ha,9 (9 - Complete kill)
same,ABUTH rating,[5]; 0.0125 kg/ha,0 (0 - No effect)
same,ABUTH rating,[5]; 0.025 kg/ha,1 (1 - Trace effect)
same,ABUTH rating,[5]; 0.100 kg/ha,3 (3 - Moderate effect)
same,ABUTH rating,[5]; 0.400 kg/ha,8 (8 - Approaching complete kill)
same,ZEAMX rating,[6]; [10],0 (0 - No effect)
same,ZEAMX rating,[6]; [11],0 (0 - No effect)
same,ZEAMX rating,[6]; [12],1 (1 - Trace effect)
same,ZEAMX rating,[6]; [13],1 (1 - Trace effect)
same,ZEAMX rating,[6]; [14],2 (2 - Slight effect)
same,ZEAMX rating,[6]; [15],2 (2 - Slight effect)
same,ZEAMX rating,[6]; [16],3 (3 - Moderate effect)
same,ZEAMX rating,[6]; [17],3 (3 - Moderate effect)
same,SETVI rating,[7]; 0.0125 kg/ha,5 (5 - Definite injury)
same,SETVI rating,[7]; 0.025 kg/ha,8 (8 - Approaching complete kill)
same,SETVI rating,[7]; 0.100 kg/ha,9 (9 - Complete kill)
same,SETVI rating,[7]; 0.400 kg/ha,9 (9 - Complete kill)
same,AMBEL rating,[8]; 0.0125 kg/ha,4 (4 - Injury)
same,AMBEL rating,[8]; 0.025 kg/ha,5 (5 - Definite injury)
same,AMBEL rating,[8]; 0.100 kg/ha,5 (5 - Definite injury)
same,AMBEL rating,[8]; 0.400 kg/ha,9 (9 - Complete kill)
same,IPOHE rating,[9]; 0.0125 kg/ha,1 (1 - Trace effect)
same,IPOHE rating,[9]; 0.025 kg/ha,2 (2 - Slight effect)
same,IPOHE rating,[9]; 0.100 kg/ha,3 (3 - Moderate effect)
same,IPOHE rating,[9]; 0.400 kg/ha,7 (7 - Good herbicidal effect)
